Assay results: paper PMC12670400, “LEKTI-Grafted Sunflower Trypsin Inhibitor: A Potential Therapeutic for Skin Diseases” (Journal of Medicinal Chemistry, 2025)
Bridge positions count the residues as written; N and C are the ends. Peptide text beside a SMILES is read from it.

Test system: healthy donor keratinocytes
Assay: Transepithelial electrical resistance (TEER) assay, healthy donor keratinocytes
Type: cell-based, human
Conditions: 1 μM, 9 days, p > 0.05, n = 54
Excerpt: KLK5 regulates epidermal barrier homeostasis by targeting corneodesmosomal proteins involved in cell–cell adhesion, including desmoglein-1 (DSG1), desmocollin-1 (DSC1), and corneodesmosin (CDSN). Dysregulated KLK5 activity can accelerate the degradation of these adhesion molecules, leading to impaired corneocyte cohesion and disruption of the epithelial barrier. To assess whether control of KLK5 activity by lead 7 could improve barrier integrity, the resistance of epidermal sheets generated using NS and healthy donor keratinocytes was measured using a transepithelial electrical resistance (TEER) assay. Keratinocytes from NS keratinocyte and three healthy donors were seeded in 6-well plates and cultured in the medium with 1 μM of lead 7 or without. The medium was replaced every 3 days with fresh lead 7 added in the treated groups. TEER measurements were performed every other day, and cultures were maintained until TEER values reached a plateau (9 days).
Transepithelial Electrical Resistance (TEER) assay […]
Transepithelial electrical resistance (TEER) values in ohms (Ω) were measured using the EVOM™ Manual Resistance Meter (World Precision Instruments, cat no. EVM-MT-03-02). Background resistance was first recorded using inserts containing only medium (without cells). […]
One-way ANOVA was used for KLK5 activity study. […] TEER study data was analysed using the Wilcoxon […]

## C[C@@H](O)[C@@H]1NC(=O)[C@@H]2CSSC[C@H](NC(=O)[C@H](CCC(=O)O)NC(=O)[C@@H]3CCCN3C(=O)[C@@H]3CCCN3C(=O)[C@H](CC(N)=O)NC(=O)[C@H](CO)NC(=O)[C@H](CCCNC(=N)N)NC1=O)C(=O)N[C@@H](Cc1c[nH]c3ccccc13)C(=O)N1CCC[C@H]1C(=O)N[C@@H](CC(N)=O)C(=O)NCC(=O)N[C@@H](Cc1ccccc1)C(=O)N2 [compound 7] (cyclo(GFCTRSNPPECWPN); disulfide 3-11)
  TEER, treated versus untreated healthy donor keratinocytes: no differences
